In patent US9556492B2, “Corn plant MON88017 and compositions and methods for detection thereof” (Monsanto Technology LLC, priority 2003, dated 2017):

Tested on: corn rootworm larvae
Assay: corn rootworm feeding damage field screen, root damage rated on the Node-Injury Scale
Format: in vivo, Diabrotica spp.
Settings: Node-Injury Scale 0-3; insecticide treated non-insecticidal protein containing corn plants; 5 ounces per 1000 feet of row; artificially infested plots
Description: Transgenic corn plants were assayed for corn rootworm resistance to feeding damage by greenhouse and field screens. Root damage was rated using the Node-Injury Scale (NIS) developed by Oleson and Tollefson of Iowa State University, this scale rates damage done to corn roots using 0-3 values. The 0.00 value describes no feeding damage and is the lowest rating, 1.00 describes one node or the equivalent of an entire node eaten back to within approximately two inches of the stalk, 2.00 describes two complete nodes eaten, and 3.00 describes three or more nodes eaten and is the highest rating. Damage in between complete nodes eaten is noted as the percentage of the node missing, i.e., 1.50 describes 1½ nodes eaten, 0.25 describes ¼ of one node eaten. Field plots were artificially infested with corn rootworm larvae by applying 1500-2000 eggs per linear foot of row at the V3-V4 growth stage. Insecticide treated rows were treated with Tefluthrin insecticide (Force® 3G, Zeneca Ag Products) at a rate of 5 ounces per 1000 feet of row.

## Cc1c(F)c(F)c(COC(=O)[C@@H]2[C@H](/C=C(\Cl)C(F)(F)F)C2(C)C)c(F)c1F (racemic) [Tefluthrin]
  average RDR: 0.44
